Laboratory results published in patent US20020193425A1, “Cancer chemopreventative compounds and compositions and methods of treating cancers” (priority 2001, published 2002).

What was measured:
c-myc mRNA, HL-60 = assay: c-myc mRNA levels, real time RT-PCR; format: cell-based, human
Description: RNA was extracted from 10^6 cells using TRIZOL® Reagent (Life Technologies). Following isopropanol precipitation, the pellet was washed in 75% aqueous ethanol and the RNA was dissolved in […] of diethyl pyrocarbonate (DEPC)-treated distilled water. Subsequently, the samples were stored at −80° C. RNA quantitation was performed by UV measurement at 260 nm. The cDNA synthesis was performed in a total volume of […], containing 1×TaqManÒ RT buffer, 5.5 mM MgCl2, 2 mM dNTPs mixture, 2.5 mM random hexamers, 4 U RNase inhibitor, 12.5 U MultiScriber RT (Perkin Elmer/Applied Biosystems) and […] of RNA. The reaction was performed for 10 min at 25° C., followed by 48° C. for 30 min and a 5 min incubation step at 95° C. After the reaction, […] of DEPC-treated distilled water was added to each sample and […] was used for each PCR.
The PCR and subsequent analyses were performed in the GeneAmp 5700 Sequence Detection System (Applied Biosystems). Real-time quantitation was performed using the TaqMan technology of Applied Biosystems (Foster City, Calif., USA). c-Myc primers and probe sequences (5′ to 3′) were as follows: […], […] and […] (Applied Biosystems).
PCR reactions were performed in triplicate. The PCR reaction mixture contained 300 nM of both primers, 150 nM TaqMan probe, and 1×TaqMan Universal Master Mix (Applied Biosystems). The reactions first were incubated at 50° C. for 2 min, followed by 10 min at 95° C. The PCR itself consisted of 40 cycles with 15 s at 95° C. and 1 min at 60° C. each. The fluorescence signal was measured during the last 30 s of the annealing/extension phase. After the PCR, a fluorescence threshold value was set and threshold cycle (Ct) values were determined, i.e., the fractional cycle at which the fluorescence signal reached this threshold. These values were used for further calculations.
β-Actin (TaqMan PDAR control, Applied Biosystems) was used as an endogenous reference to correct for any differences in the amount of total RNA used for a reaction and to compensate for different levels of inhibition during reverse transcription of RNA into cDNA. c-Myc and β-actin expression were related to a standard curve derived from a serial dilution of K562 cDNA with dH2O. Also, c-Myc and β-actin quantities were expressed in terms of ng of K562 RNA yielding the same level of expression. Subsequently, normalization was achieved by dividing the expression level of c-Myc by the β-actin expression level. Finally, results were expressed as a percentage, where the level of c-Myc observed in the DMSO-treated samples was considered as 100%.
Cells were treated with brusatol (25 ng/ml) or bruceantin (10 ng/ml) for 4 or 24 h and then analyzed for c-myc and β-actin mRNA using real time RT-PCR. Results are shown as percentage of c-myc mRNA expression of control (0.1%, v/v, DMSO) values. Results are the mean of triplicate samples (±standard deviation). c-Myc mRNA values were normalized relative to β-actin.

c-Myc oncoprotein, HL-60 = assay: c-Myc oncoprotein expression, western blotting; format: cell-based, human
Description: (§1) The expression of c-Myc was assessed by immunoblots as previously described. In brief, cells (10^6) were treated and harvested at various time intervals, and whole-cell pellets were lysed with detergent lysis buffer (1 ml/10^7 cells, 50 mM Tris-HCl buffer, pH 8.0, 150 mM NaCl, 1 mM DTT, 0.5 mM EDTA, 1% Nonidet® P40, 0.5% sodium deoxycholate, 0.1% sodium dodecylsulfate, 100 μg/ml phenylmethylsulfonyl fluoride, 1 μg/ml aprotinin, 2 μg/ml leupeptin and 100 μM sodium vanadate) to obtain protein lysates. Protein concentrations were quantified using a bicinchoninic acid kit. Since c-Myc is a labile protein, cell lysates were not frozen, but stored at 4° C., until all protein lysates were prepared for a particular cell line, and then western blots were performed immediately. Total protein ([…]) was separated by 10% SDS-PAGE, electroblotted to PVDF membranes, and blocked overnight with 5% nonfat dry milk. The membrane was incubated with a solution of the primary antibody (2.5 μg/ml), prepared in 1% blocking solution, for 2 h at room temperature, washed three-times for 15 min with PBS-T (PBS with 0.1%, v/v, Tween 20), and incubated with a 1:2500 dilution of horseradish peroxidase-conjugated secondary antibody for 30 min at 37° C. Blots were again washed three-times for 10 min each in PBS-T and developed by enhanced chemiluminescence (Amersham). Membranes were exposed to Kodak Biomax film and the resulting film was analyzed using Kodak 1D Image Analysis software. Membranes were then stripped and reprobed for the quantification of bactin.
(§2) Cells were treated with solvent (0.1% v/v DMSO, control), brusatol (25 ng/ml) or bruceantin (10 ng/ml) for 4 or 24 h, then analyzed by western blotting. Membranes were probed for c-Myc, and then stripped and probed for β-actin as an internal control.
(§3) Cells were treated with brusatol (25 ng/ml) or bruceantin (10 ng/ml) for 4 or 24 h, and then analyzed for c-Myc and β-actin expression using western blotting techniques. Results are expressed as percentage of c-Myc oncoprotein of control (0.1%, v/v, DMSO treated cells) values. Results were normalized relative to β-actin.

[1] = system: c-Myc oncoprotein, RS4;11; assay: c-Myc oncoprotein expression, western blotting; format: cell-based
Description: as §1, §2, §3

c-Myc oncoprotein, NB4 = assay: c-Myc oncoprotein expression, western blotting; format: cell-based
Description: as §1, §2, §3

c-Myc oncoprotein, Reh = assay: c-Myc oncoprotein expression, western blotting; format: cell-based
Description: as §1, §2, §3

c-Myc oncoprotein, BV173 = assay: c-Myc oncoprotein expression, western blotting; format: cell-based
Description: as §1, §2, §3

c-Myc oncoprotein, K562 = assay: c-Myc oncoprotein expression, western blotting; format: cell-based
Description: as §1, §2, §3

[2] = system: c-Myc oncoprotein, Kasumi-1; assay: c-Myc oncoprotein expression, western blotting; format: cell-based
Description: as §1, §2, §3

c-Myc oncoprotein, U937 = assay: c-Myc oncoprotein expression, western blotting; format: cell-based
Description: as §1, §2, §3

[3] = system: c-Myc oncoprotein, SUPB13; assay: c-Myc oncoprotein expression, western blotting; format: cell-based
Description: as §1, §2, §3

c-Myc oncoprotein, Daudi = assay: c-Myc oncoprotein expression, western blotting; format: cell-based
Description: as §1, §2, §3

SMILES: COC(=O)[C@@]12OC[C@]34[C@H]([C@@H](O)[C@@H]1O)[C@@]1(C)CC(=O)C(O)=C(C)[C@@H]1C[C@H]3OC(=O)[C@H](OC(=O)C=C(C)C)[C@@H]24 [compound 1, brusatol]
- decrease in c-Myc mRNA levels (c-myc mRNA, HL-60; 4 h treatment): about 50%
- c-myc mRNA expression, percentage of control (c-myc mRNA, HL-60; Brusatol (25 ng/ml), 4 h): 54 ± 2 %
- c-myc mRNA expression, percentage of control (c-myc mRNA, HL-60; Brusatol (25 ng/ml), 24 h): 11 ± 2 %
- decrease of c-Myc protein levels (c-Myc oncoprotein, HL-60; 4 h treatment): 100%
- c-Myc oncoprotein, percentage of control (c-Myc oncoprotein, HL-60; Brusatol (25 ng/ml), 4 h): 0%
- c-Myc oncoprotein, percentage of control (c-Myc oncoprotein, HL-60; Brusatol (25 ng/ml), 24 h): 17%
- c-Myc oncoprotein, percentage of control ([1]; RS4,11, Brusatol (25 ng/ml), 24 h): 10%
- c-Myc oncoprotein, percentage of control ([1]; RS4;11, Brusatol (25 ng/ml), 4 h): 20%
- c-Myc oncoprotein, percentage of control (c-Myc oncoprotein, NB4; Brusatol (25 ng/ml), 4 h): 0%
- c-Myc oncoprotein, percentage of control (c-Myc oncoprotein, NB4; Brusatol (25 ng/ml), 24 h): 0%
- c-Myc oncoprotein, percentage of control (c-Myc oncoprotein, Reh; Brusatol (25 ng/ml), 4 h): 66%
- c-Myc oncoprotein, percentage of control (c-Myc oncoprotein, Reh; Brusatol (25 ng/ml), 24 h): 32%
- c-Myc oncoprotein, percentage of control (c-Myc oncoprotein, BV173; Brusatol (25 ng/ml), 4 h): 22%
- c-Myc oncoprotein, percentage of control (c-Myc oncoprotein, BV173; Brusatol (25 ng/ml), 24 h): 41%
- decrease of c-Myc protein levels (c-Myc oncoprotein, K562; 4 h treatment): 94%
- c-Myc oncoprotein, percentage of control (c-Myc oncoprotein, K562; Brusatol (25 ng/ml), 4 h): 6%
- c-Myc oncoprotein, percentage of control (c-Myc oncoprotein, K562; Brusatol (25 ng/ml), 24 h): 13%
- c-Myc oncoprotein, percentage of control ([2]; Brusatol (25 ng/ml), 4 h): 66%
- c-Myc oncoprotein, percentage of control ([2]; Brusatol (25 ng/ml), 24 h): 112%
- c-Myc oncoprotein, percentage of control (c-Myc oncoprotein, U937; Brusatol (25 ng/ml), 4 h): 5%
- c-Myc oncoprotein, percentage of control (c-Myc oncoprotein, U937; Brusatol (25 ng/ml), 24 h): 12%
- c-Myc oncoprotein, percentage of control ([3]; Brusatol (25 ng/ml), 4 h): 52%
- c-Myc oncoprotein, percentage of control ([3]; Brusatol (25 ng/ml), 24 h): 41%
- c-Myc oncoprotein, percentage of control (c-Myc oncoprotein, Daudi; Brusatol (25 ng/ml), 4 h): 79%
- c-Myc oncoprotein, percentage of control (c-Myc oncoprotein, Daudi; Brusatol (25 ng/ml), 24 h): 10%

SMILES: COC(=O)[C@@]12OC[C@]34[C@H]([C@@H](O)[C@@H]1O)[C@@]1(C)CC(=O)C(O)=C(C)[C@@H]1C[C@H]3OC(=O)[C@H](OC(=O)/C=C(\C)C(C)C)[C@@H]24 [compound 2, bruceantin]
- c-myc mRNA expression, percentage of control (c-myc mRNA, HL-60; Bruceantin (10 ng/ml), 4 h): 76 ± 9 %
- c-myc mRNA expression, percentage of control (c-myc mRNA, HL-60; Bruceantin (10 ng/ml), 24 h): 16 ± 0 %
- c-Myc oncoprotein, percentage of control (c-Myc oncoprotein, HL-60; Bruceantin (10 ng/ml), 4 h): 3%
- c-Myc oncoprotein, percentage of control (c-Myc oncoprotein, HL-60; Bruceantin (10 ng/ml), 24 h): 57%
- c-Myc oncoprotein, percentage of control ([1]; RS4;11, Bruceantin (10 ng/ml), 4 h): 140%
- c-Myc oncoprotein, percentage of control ([1]; RS4;11, Bruceantin (10 ng/ml), 24 h): 6%
- c-Myc oncoprotein, percentage of control (c-Myc oncoprotein, NB4; Bruceantin (10 ng/ml), 4 h): 0%
- c-Myc oncoprotein, percentage of control (c-Myc oncoprotein, NB4; Bruceantin (10 ng/ml), 24 h): 0%
- c-Myc oncoprotein, percentage of control (c-Myc oncoprotein, Reh; Bruceantin (10 ng/ml), 4 h): 44%
- c-Myc oncoprotein, percentage of control (c-Myc oncoprotein, Reh; Bruceantin (10 ng/ml), 24 h): 40%
- c-Myc oncoprotein, percentage of control (c-Myc oncoprotein, BV173; Bruceantin (10 ng/ml), 4 h): 28%
- c-Myc oncoprotein, percentage of control (c-Myc oncoprotein, BV173; Bruceantin (10 ng/ml), 24 h): 12%
- c-Myc oncoprotein, percentage of control (c-Myc oncoprotein, K562; Bruceantin (10 ng/ml), 4 h): 2%
- c-Myc oncoprotein, percentage of control (c-Myc oncoprotein, K562; Bruceantin (10 ng/ml), 24 h): 12%
- c-Myc oncoprotein, percentage of control ([2]; Bruceantin (10 ng/ml), 4 h): 70%
- c-Myc oncoprotein, percentage of control ([2]; Bruceantin (10 ng/ml), 24 h): 87%
- c-Myc oncoprotein, percentage of control (c-Myc oncoprotein, U937; Bruceantin (10 ng/ml), 4 h): 40%
- c-Myc oncoprotein, percentage of control (c-Myc oncoprotein, U937; Bruceantin (10 ng/ml), 24 h): 44%
- c-Myc oncoprotein, percentage of control ([3]; Bruceantin (10 ng/ml), 4 h): 42%
- c-Myc oncoprotein, percentage of control ([3]; Bruceantin (10 ng/ml), 24 h): 63%
- c-Myc oncoprotein, percentage of control (c-Myc oncoprotein, Daudi; Bruceantin (10 ng/ml), 4 h): 67%
- c-Myc oncoprotein, percentage of control (c-Myc oncoprotein, Daudi; Bruceantin (10 ng/ml), 24 h): 2%
